One assay addresses T1, FAK (Homo sapiens, UniProt Q05397).
T1 construct: purchased Cell Signaling 7796
Kind of assay: Measurement of FAK kinase activity (ULight-LANCE assay). The format is biochemical. As to conditions: 10 µM ATP, 3 nM FAK, TR-FRET; read-out: FAK inhibition activity (IC50). The protocol: Full sequence FAK was purchased from Cell Signaling (Catalog No.: 7796). ULight-poly GT (PerkinElmer #TRF0100-D), Eu-anti-phospho-Tyr (PT66) ((PerkinElmer #AD0068) and Lance detection buffer (PerkinElmer #CR-97-100) were purchased from PerkinElmer. The kinase solution (50 mM Tris-HCl pH 7.5, 10 mM MgCl2, 1 mM EGTA, 2 mM DTT, 0.01% Tween-20) was adjusted to a final concentration of 3 nM by adding FAK diluted to 6 nM (2X) in white 384 OptiPlate, and added with an amount of 5 µL. 4X ULight-poly GT was adjusted to a final concentration of 100 nM. ATP (Sigma #A2383) was adjusted to a final concentration of 10 µM and in 2.5 µL aliquots. The test compound was sequentially diluted at 12 concentrations and treated with an amount of 0.5 µL. After shaking well and allowing to react at room temperature for 60 minutes, 5 µL of ethylenediaminetetraacetic acid (EDTA, final concentration 40 mM) diluted in Lance detection buffer (Lance detection buffer) was added and the mixture was left at room temperature for 5 minutes to stop the reaction. After adding 4X Eu-anti-phospho-Tyr (PT66) phosphorylated antibody diluted to a final concentration of 2 nM in detection buffer with an amount of 5 µL, and reaction was performed at room temperature for 60 minutes. After adjusting to detect time-resolved fluorescence energy transfer (TR-FRET) at excitation wavelength 320 nm and emission wavelength 665 nm, signals were detected using EnVision Multilabel Reader.

Assay [1] concerns HT-29 human colon adenocarcinoma cells. Kind of assay: Inhibition of proliferation of HT-29 cells (MTT assay). It counts as cell-based. As to conditions: read-out: Inhibition activity against proliferation of HT-29 cells (GI50). The method, then: HT-29 human colon adenocarcinoma cells were cultured in DMEM [10% FBS, 1% penicillin/streptomycin] at 37 °C in the presence of 5% CO2. The cultured HT-29 cells were harvested with 0.05% trypsin-0.02% EDTA and seeded in a 96-well plate at 5 x 10^3 cells per well.
3-(4,5-Dimethylthiazol-2-yl)-2,5-diphenyltetrazolium bromide (MTT) assay (CellTiter 96 Assay, Promega) was employed to measure cell viability. After adding 15 µL of a dye per well and culturing for 2 hours, the cells were treated with 100 µL of a stop solution and absorbance was measured 24 hours later. The test compound was treated a day after plating. The test compound had been sequentially diluted at 12 concentrations from a 10 mM stock solution using sterilized dimethylsulfoxide (DMSO) and treated with an amount of 0.5 µL. Absorbance at 590 nm was recorded using En Vision 2103, and GI50 value was calculated using GraphPad Prism 4.0 software.
In general terms: Tetrazolium assays rely on reduction of a dye to a coloured formazan, in cell work by metabolically active cells.

The subject of assay [2] is prostate cancer PC-3, breast cancer BT-474, colon LoVo, lung cancer NCI-H460, glioblastoma U-87 MG and pancreatic cancer BxPC-3 cells. Conditions: 25-100 mg/kg p.o., human tumor xenografts; cited from earlier work. In general terms: In xenograft studies the graft and the host belong to different species.
The subject of another assay is tumor. As to conditions: concurrent administration of TAE226 and docetaxel, animal model, P values < 0.01; cited from earlier work.

As a reminder, the IC50 is the concentration at which inhibition is half-maximal.

T1 sequence (Q05397 whole entry): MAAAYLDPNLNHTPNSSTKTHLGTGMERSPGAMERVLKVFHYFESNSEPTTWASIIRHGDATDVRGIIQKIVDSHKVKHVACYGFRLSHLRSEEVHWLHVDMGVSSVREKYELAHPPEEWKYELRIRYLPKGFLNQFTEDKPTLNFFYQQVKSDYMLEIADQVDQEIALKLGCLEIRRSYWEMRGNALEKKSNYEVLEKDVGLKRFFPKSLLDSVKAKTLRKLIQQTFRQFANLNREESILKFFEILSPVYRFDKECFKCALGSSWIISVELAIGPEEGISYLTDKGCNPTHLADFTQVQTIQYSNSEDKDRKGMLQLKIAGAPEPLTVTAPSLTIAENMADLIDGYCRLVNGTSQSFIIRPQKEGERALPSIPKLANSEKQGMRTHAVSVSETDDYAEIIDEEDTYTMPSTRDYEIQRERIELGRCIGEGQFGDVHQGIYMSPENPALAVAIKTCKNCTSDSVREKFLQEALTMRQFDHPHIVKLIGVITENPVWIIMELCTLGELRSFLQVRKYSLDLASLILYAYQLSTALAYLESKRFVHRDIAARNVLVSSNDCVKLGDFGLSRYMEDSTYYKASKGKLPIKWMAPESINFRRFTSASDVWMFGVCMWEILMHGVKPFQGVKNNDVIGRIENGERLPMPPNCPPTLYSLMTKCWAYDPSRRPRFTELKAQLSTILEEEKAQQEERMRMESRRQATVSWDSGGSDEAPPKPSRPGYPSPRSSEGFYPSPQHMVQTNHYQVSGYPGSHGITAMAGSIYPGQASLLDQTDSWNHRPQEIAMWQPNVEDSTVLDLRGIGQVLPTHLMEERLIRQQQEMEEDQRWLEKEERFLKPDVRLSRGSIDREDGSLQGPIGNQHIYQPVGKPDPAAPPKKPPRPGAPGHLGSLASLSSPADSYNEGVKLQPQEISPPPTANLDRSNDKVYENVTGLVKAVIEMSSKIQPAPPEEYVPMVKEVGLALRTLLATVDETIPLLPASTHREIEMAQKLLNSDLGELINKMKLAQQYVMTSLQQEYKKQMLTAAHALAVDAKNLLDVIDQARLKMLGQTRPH

Take `CCN1CCN(c2ccc(Nc3ncc4scc(-c5cccc(NS(C)(=O)=O)c5)c4n3)cn2)CC1` [Example 1, N-(3-(2-(6-(4-ethylpiperazin-1-yl)pyridin-3-ylamino)thieno[3,2-d]pyrimidin-7-yl)phenyl)methanesulfonamide]: at FAK, the concentration for half-maximal inhibition (IC50) was < 500 nM. In assay [1], the GI50 is < 1000 nM. Take `Cc1ccc(Nc2ncc3scc(-c4cccc(NS(C)(=O)=O)c4)c3n2)cn1` [Example 11, N-(3-(2-(6-methylpyridin-3-ylamino)thieno[3,2-d]pyrimidin-7-yl)phenyl)methanesulfonamide]: at FAK, the 50% inhibitory concentration (IC50) is < 1000 nM. In assay [1], the GI50 was < 1000 nM.

Regarding `CS(=O)(=O)Nc1cccc(-c2csc3cnc(Nc4ccc(N5CCOCC5)nc4)nc23)c1` [Example 12, N-(3-(2-(6-morpholinopyridin-3-ylamino)thieno[3,2-d]pyrimidin-7-yl)phenyl)methanesulfonamide], at FAK, the IC50 was < 1000 nM. The GI50 in assay [1] is < 1000 nM. `CN(C)CCOc1ccc(Nc2ncc3scc(-c4cccc(NS(C)(=O)=O)c4)c3n2)cn1` [Example 13, N-(3-(2-(6-(2-(dimethylamino)ethoxy)pyridin-3-ylamino)thieno[3,2-d]pyrimidin-7-yl)phenyl)methanesulfonamide]: the IC50 at FAK is < 500 nM. Also, the GI50 in assay [1] is < 1000 nM.

In the case of `CCN1CCN(c2ccc(Nc3ncc4scc(-c5cccc(C(=O)NC6CC6)c5)c4n3)cn2)CC1` [Example 25, N-cyclopropyl-3-(2-(6-(4-ethylpiperazin-1-yl)pyridin-3-ylamino)thieno[3,2-d]pyrimidin-7-yl)benzamide], the half-maximal inhibitory concentration (IC50) at FAK is < 500 nM. The GI50 in assay [1] is < 1000 nM. In the case of `Cc1ccc(Nc2ncc3scc(-c4cccc(C(=O)NC5CC5)c4)c3n2)cn1` [Example 26, N-cyclopropyl-3-(2-(6-methylpyridin-3-ylamino)thieno[3,2-d]pyrimidin-7-yl)benzamide], the IC50 at FAK is < 10000 nM. On to `O=C(NC1CC1)c1cccc(-c2csc3cnc(Nc4ccc(N5CCOCC5)nc4)nc23)c1` [Example 27, N-cyclopropyl-3-(2-(6-morpholinopyridin-3-ylamino)thieno[3,2-d]pyrimidin-7-yl)benzamide], for which the IC50 on FAK was < 500 nM. Besides, the GI50 in assay [1] is < 1000 nM. Turning to `CCN1CCN(c2ccc(Nc3ncc4scc(-c5cnc6ccccc6c5)c4n3)cn2)CC1` [Example 30, N-(6-(4-ethylpiperazin-1-yl)pyridin-3-yl)-7-(quinolin-3-yl)thieno[3,2-d]pyrimidin-2-amine], the concentration for half-maximal inhibition (IC50) on FAK was < 500 nM. The GI50 in assay [1] is < 1000 nM. With `CN(c1ncccc1CNc1nc(Nc2ccc3c(c2)CC(=O)N3)ncc1C(F)(F)F)S(C)(=O)=O` [PF-562271], the “inhibition of tumor growth or tumor degeneration” value in assay [2] is given as 42-90%.

In the case of `CNC(=O)c1ccccc1Nc1nc(Nc2ccc(N3CCOCC3)cc2OC)ncc1Cl` [TAE226], the tumor reduction with tumor is recorded as 85-97%.
